In ChEMBL document CHEMBL2407085, “Structure-Activity Relationships and in Vivo Evaluation of Quinoxaline Derivatives for PET Imaging of β-Amyloid Plaques” (ACS Med Chem Lett, 2013):
Calls of active or inactive are those of the source. The rule behind the calls is not given here.

How the values were obtained:
[1] = Drug uptake in Alzheimer's disease patient white matter at 370 kBq/100 uL after 1 hr by thioflavin-S based autoradiography; type: ADME, tissue-based; details: human, in vitro
Brain [2] = test: Biodistribution in Tg2576 ddY mouse brain at 23.4 to 48.2 kBq, iv measured at 2 to 10 mins by autoradiography; type: ADME, organism-based; details: in vivo
Brain [3] = test: Biodistribution in Tg2576 ddY mouse brain at 23.4 to 48.2 kBq, iv measured at 60 mins by autoradiography; type: ADME, organism-based; details: in vivo, 1 h
[4] = target: T1, Amyloid-beta precursor protein (Homo sapiens, UniProt P05067); test: Binding affinity to beta-amyloid plaque in Alzheimer's disease patient brain cortex after 1 hr by thioflavin-S based autoradiography
T1 sequence (P05067 whole entry): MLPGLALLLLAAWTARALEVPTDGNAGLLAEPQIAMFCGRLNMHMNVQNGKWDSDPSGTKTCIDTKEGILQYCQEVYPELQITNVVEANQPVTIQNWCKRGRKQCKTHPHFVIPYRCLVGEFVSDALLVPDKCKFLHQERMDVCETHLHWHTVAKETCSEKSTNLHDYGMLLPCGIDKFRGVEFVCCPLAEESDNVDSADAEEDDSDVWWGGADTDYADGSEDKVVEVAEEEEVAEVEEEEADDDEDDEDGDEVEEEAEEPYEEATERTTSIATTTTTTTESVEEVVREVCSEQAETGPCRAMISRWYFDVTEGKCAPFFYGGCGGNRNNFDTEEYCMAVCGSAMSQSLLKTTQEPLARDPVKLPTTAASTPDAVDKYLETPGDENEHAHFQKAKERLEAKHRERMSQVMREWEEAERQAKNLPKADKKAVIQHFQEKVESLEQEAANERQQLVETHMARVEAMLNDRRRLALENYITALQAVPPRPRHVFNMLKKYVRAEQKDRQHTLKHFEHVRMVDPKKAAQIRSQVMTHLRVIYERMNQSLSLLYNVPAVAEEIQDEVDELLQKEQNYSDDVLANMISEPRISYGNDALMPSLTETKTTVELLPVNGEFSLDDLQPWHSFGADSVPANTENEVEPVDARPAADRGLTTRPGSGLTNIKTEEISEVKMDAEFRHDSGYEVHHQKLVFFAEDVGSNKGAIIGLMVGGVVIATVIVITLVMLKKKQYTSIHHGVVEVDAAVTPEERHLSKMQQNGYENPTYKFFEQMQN

Brain [5] = test: Ratio of drug uptake in ddY mouse brain at 23.4 to 48.2 kBq, iv measured at 2 mins to drug uptake in ddY mouse brain at 23.4 to 48.2 kBq, iv measured at 60 mins; details: in vivo
Mus musculus [6] = test: Biodistribution in Tg2576 ddY mouse olfactory tract at 5.5 MBq, iv by autoradiography; type: ADME, organism-based; details: in vivo
Mus musculus [7] = test: Biodistribution in Tg2576 ddY mouse anterior commissure at 5.5 MBq, iv by autoradiography; type: ADME, organism-based; details: in vivo
Mus musculus [8] = test: Biodistribution in Tg2576 ddY mouse external capsule at 5.5 MBq, iv by autoradiography; type: ADME, organism-based; details: in vivo
Mus musculus [9] = test: Biodistribution in Tg2576 ddY mouse corpus callosum at 5.5 MBq, iv by autoradiography; type: ADME, organism-based; details: in vivo
Mus musculus [10] = test: Ex vivo binding affinity to beta-amyloid plaque in wild-type mouse brain at 5.5 MBq, iv measured at 1 hr by Thioflavin-S fluorescence microscopy; type: functional, organism-based; details: 5.5 M, tested as the 18F-labelled form
Mus musculus [11] = test: Ex vivo binding affinity to beta-amyloid plaque in Tg2576 mouse brain at 5.5 MBq, iv measured at 1 hr by Thioflavin-S fluorescence microscopy; type: functional, organism-based; details: 5.5 M, tested as the 18F-labelled form
[12] = target: T1, Amyloid-beta precursor protein; test: Ratio of AV-45 Ki to compound Ki for amyloid beta (1 to 42) (unknown origin) […] by gamma counting
[13] = target: T1, Amyloid-beta precursor protein; test: Displacement of [125I]IMPY from amyloid beta (1 to 42) (unknown origin) after 3 hrs by gamma counting

| SMILES | Drug uptake [1] | Drug uptake (Brain [2]) | Drug uptake (Brain [3]) [% ID/g] | Ki [4] [nM] | Ratio (Brain [5]) | further results |
| --- | --- | --- | --- | --- | --- | --- |
| CNc1ccc(-c2cnc3cc(OCC[18F])ccc3n2)cc1 | Not Active | 4.69 % ID/g | 1.48 | 15.7 | 2.36 | – |
| Nc1ccc(-c2cnc3ccc(OCC[18F])cc3n2)cc1 | Active | 4.69 % ID/g | 1.48 | > 242 | 2.36 | – |
| CN(C)c1ccc(-c2cnc3ccc(OCC[18F])cc3n2)cc1 | – | 4.69 % ID/g | 1.48 | 111 | 3.91 | – |
| CNc1ccc(-c2cnc3ccc(OCC[18F])cc3n2)cc1 | Active | 4.69 % ID/g | 1.48 | > 242 | 2.36 | – |
| Nc1ccc(-c2cnc3cc(OCC[18F])ccc3n2)cc1 | Active | 4.69 % ID/g | 1.48 | > 242 | 2.36 | – |
| CNc1ccc(/C=C/c2ccc(OCCOCCOCC[18F])nc2)cc1 [FLORBETAPIR F 18] | – | Active | – | – | 3.8 | – |
| CN(C)c1ccc(-c2cnc3cc(OCC[18F])ccc3n2)cc1 | Not Active | 4.69 % ID/g | 1.48 | 0.895 | 2.36 | Drug uptake (Mus musculus [6]): Active; Drug uptake (Mus musculus [7]): Active; Drug uptake (Mus musculus [8]): Active; Drug uptake (Mus musculus [9]): Active |
| CN(C)c1ccc(-c2cnc3cc(OCCF)ccc3n2)cc1 | – | – | – | – | – | Activity (Mus musculus [10]): Active; Activity (Mus musculus [11]): Active; Ratio Ki [12]: 10; Ki [13]: 0.895 nM |
| CNc1ccc(/C=C/c2ccc(OCCOCCOCCF)nc2)cc1 [FLORBETAPIR] | – | – | – | – | – | Ki [13]: 12.8 nM |
